Experimental data reported in article PMC5641083, “Blockage of FOXP3 transcription factor dimerization and FOXP3/AML1 interaction inhibits T regulatory cell activity: sequence optimization of a peptide inhibitor” (Oncotarget, 2017).
Read-outs that look alike come from different tables or passages of the source. Where a SMILES comes first, the peptide text is derived from it.

Experiments:
[1] = target: T1, FOXP3/FOXP3 homodimerization (GST-FOXP3 and FOXP3-His) (Homo sapiens, UniProt Q9BZS1); assay: AlphaScreen FOXP3 homodimerization assay; type: biochemical; conditions: GST-FOXP3 40 nM, FOXP3-His 300 nM
T1 construct: made in house; host or cells: E. coli
T1 sequence (Q9BZS1 1-421): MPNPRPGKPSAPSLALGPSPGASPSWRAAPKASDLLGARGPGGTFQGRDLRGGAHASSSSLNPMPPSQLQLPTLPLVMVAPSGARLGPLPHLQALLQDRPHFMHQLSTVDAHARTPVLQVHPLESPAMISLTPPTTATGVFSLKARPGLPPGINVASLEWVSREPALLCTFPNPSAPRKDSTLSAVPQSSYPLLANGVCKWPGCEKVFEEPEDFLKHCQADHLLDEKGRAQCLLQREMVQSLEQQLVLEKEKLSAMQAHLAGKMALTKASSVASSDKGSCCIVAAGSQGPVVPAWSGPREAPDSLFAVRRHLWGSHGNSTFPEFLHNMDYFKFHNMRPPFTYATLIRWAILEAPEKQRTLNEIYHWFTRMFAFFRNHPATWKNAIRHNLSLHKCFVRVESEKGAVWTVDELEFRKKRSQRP
Source text: (§1) AML1 is required for IL-2 and IFN-γ gene expression in conventional CD4+ T cells and its interaction with FOXP3 is needed for the immunosuppressive activity of Tregs. On the other hand, it has been described that the leucine zipper region is necessary and sufficient to mediate FOXP3 homo-dimerization, which is required for its function as a transcriptional regulator [13, 15, 20]. Thus, since P60 binds to this FOXP3 intermediate region, we analyzed if it could act as a decoy molecule to inhibit FOXP3 homodimerization or the FOXP3-AML1 heterodimerization. The capacity of FOXP3 to homodimerize was measured using the […] assay platform AlphaScreen™ (Perkin Elmer). Previous protein-cross titration experiment using different concentrations of FOXP3-6His (from 1000 to 0 nM) and GST-FOXP3 (from 300 to 0 nM) allowed us to define the optimal protein concentrations to analyze FOXP3 homodimerization (Figure 2A). […] We also tested if GST tagged FOXP3 was able to interact with AML1 protein tagged with 6 His at the N-terminus. As shown in the cross titration experiments in Figure 2C, a specific FOXP3-AML1 heterodimerization was visualized as an increase in the AlphaScreen signal.
(§2) FOXP3/AML1 heterodimerization, as well as FOXP3/FOXP3 homodimerization were analyzed by Alphascreen technology according to the manufacturer's instructions (Perkin Elmer, Benelux) as previously described.

FOXP3/AML1 interaction = target: T2, FOXP3/AML1 interaction (Homo sapiens, UniProt Q9BZS1); assay: AlphaScreen FOXP3/AML1 heterodimerization assay; type: biochemical
T2 sequence (Q9BZS1 1-431): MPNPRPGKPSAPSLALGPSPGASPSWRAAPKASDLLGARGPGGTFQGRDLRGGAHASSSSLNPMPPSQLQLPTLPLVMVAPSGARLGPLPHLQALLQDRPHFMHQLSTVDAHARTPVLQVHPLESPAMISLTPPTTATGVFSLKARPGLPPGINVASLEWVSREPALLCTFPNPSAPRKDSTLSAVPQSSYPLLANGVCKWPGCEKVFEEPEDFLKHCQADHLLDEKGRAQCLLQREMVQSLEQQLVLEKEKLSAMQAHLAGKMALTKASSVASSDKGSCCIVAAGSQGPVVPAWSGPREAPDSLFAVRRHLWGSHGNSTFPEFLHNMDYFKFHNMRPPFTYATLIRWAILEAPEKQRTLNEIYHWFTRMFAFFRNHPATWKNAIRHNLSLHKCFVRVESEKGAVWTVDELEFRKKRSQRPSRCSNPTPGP
Source text: as §1, §2

murine Treg cells = type: cell-based, BALB/c mice
Source text: Results shown in Figures 1–3 correspond to cell-free assays where peptides can interact directly with its corresponding protein partner. However, FOXP3 binding peptides need to enter into the cell in order to inhibit FOXP3 functions. Once we identified some mutants with higher capacity to bind FOXP3, we studied their capacity to inhibit the suppressor activity of natural Tregs in vitro. Thus, we activated effector T cells with anti-CD3 monoclonal antibody in the presence of Tregs, and analyzed the capacity of each peptide to restore T cell proliferation inhibited by Treg cells. […] Indeed, when results from the point-variant screening are represented as a heat map, it is clear that introduction of an alanine at positions 2, 5 and 11 improved activity of the original P60, whereas alanine mutations at positions 1, 7, 8, 9, 10 and 12 are detrimental (Figure 4C).
Isolation of murine CD4^+CD25^+, and CD4^+CD25^− T-cells was performed from murine spleen cells by using murine regulatory T-cell isolation kit (Miltenyi Biotec, Bergisch Gladbach, Germany) according to manufacturer's instructions. The purity of the resulting T-cell populations was confirmed to be > 95% by flow cytometry.
Inhibition of murine T regulatory cell function was measured in an in vitro assay of T-cell stimulation. CD25+ depleted spleen cells (10^5 cells/well) from BALB/c mice were stimulated in vitro with 2, 5 μg/ml of anti-mouse CD3 antibody (Pharmingen) in the presence/absence of purified Treg cells (10^4 cells/well). T-cell proliferation was measured 3 days later as previously described.

[2] = test system: FOXP3-6His (native FOXP3, 1-421); assay: Surface plasmon resonance, peptide binding to FOXP3-coated chip; conditions: for FOXP3 binding by SPR (in words): peptides at 2.5 μM, N-terminal acetylation and C-terminal amidation
Experimental: Using truncated versions of FOXP3, we attempted to identify the FOXP3 domain interacting with peptide P60, described previously by or group as a FOXP3 inhibitory peptide. Thus, besides native FOXP3 we prepared the deletion mutants FOXP3 (1-331) (lacking the C-terminus of FOXP3), FOXP3 (177-421) (lacking the N-terminus) and FOXP3 (1-177) (encompassing only the N-terminus of FOXP3) (Figure 1A). They were coated on a chip for SPR experiments.
Screening of peptide binding to FOXP3 was performed by surface plasmon resonance (SPR) using ProteOn XPR36 (Bio-Rad, Hercules CA, USA) optical biosensor. Recombinant protein FOXP3-6His and the indicated truncated versions of FOXP3 were produced and purified from E-coli and immobilized covalently onto a GLM sensor chip (Bio-Rad) using sulfo-NHS and EDC (Bio-Rad) coupling reagents. After protein immobilization, chip surface was treated with ethanolamine to deactivate the excess of reactive esters. Individual peptide solutions (1–20 μM) were injected by triplicate in running buffer (Phosphate buffered saline, 0.005% (v/v) Tween 20, pH 7.4) at a flow of 30 μl/min. The interspot signal (obtained in the chip surface not immobilized with protein) was used as reference.

[3] = Metabolic stability in human liver microsomes; type: in vitro ADME; conditions: 1 μM, estimated by first order kinetics
Experimental: (§3) Metabolic stability was measured by Wuxi AppTech (Shanghai, China). Briefly, peptides (1 μM, 5% MeOH in potassium phosphate buffer) were incubated with human (catalogue no. 452161 from BD Gentest) and mouse (catalogue no. M1000, Xenotech) liver microsomes at 37°C for 10 min. Liver microsomes were at a final assay concentration of 0.7 mg protein/mL. The reaction was started by the addition of 90 μL of NADP cofactor solution and stopped by the addition of 300 μL of stop solution (acetonitrile at 4°C, including 100 ng/mL tolbutamide as an internal standard) after 20 min of incubation. The samples were shaken for 5 min and then centrifuged for 20 min at 1500 g. A 100 μL aliquot of the supernatant was transferred to eight new 96-well plates with 300 μL of HPLC water and centrifuged at 1500 g for LC-MS/MS analysis (Shimadzu LC 10-AD−API 4000). An injection volume of 10 μL was added to a Phenomenex Synergi C18 column eluting with formic acid in water or acetonitrile at a flow rate of 800 μL/min. The percent loss of parent compound was calculated from the peak area ratio of the analyte/internal standard. Compounds and positive controls were tested in duplicate.

[4] = Metabolic stability in mouse liver microsomes; type: in vitro ADME; conditions: 1 μM, estimated by first order kinetics
Experimental: as §3

Hepa-129 cells = assay: Hepa-129 subcutaneous tumor rejection model; type: in vivo, C3H/HeN mice; conditions: Hepa-129 s.c.
Experimental: Seven days after Hepa-129 cells injection, when the tumor reached 5 mm in diameter, mice were treated with CM-1215 (from days 7 to 16, 50μg/day/mouse) or anti-PD1 antibodies (50 μg/mice) at days 7 and 14. A group of mice treated with anti-PD1 received also 10 consecutive i.p. administrations of CM-1215 from days 7 to 16 (50 μg/day/mouse).
For tumor rejection experiments, Hepa-129 cells (10^6 cells/mouse), were injected subcutaneously (sc) in C3H/HeN mice (n = 6). Ten days later, when the tumor reached 5 mm in diameter, mice were randomly divided into different experimental groups. A group of mice were treated i.p. with anti-PD1 antibodies (50 μg/mouse). Antibody administration was repeated one week after this first administration. A group of mice treated with anti-PD1 also received the cyclic peptide CM-1215 from days 10 to 20 (50 μg/mice/day). Tumor size, presented as the average of two perpendicular diameters (millimetres), was measured at regular intervals. Mice were sacrificed when the mean tumor diameter was greater than 20 mm. […] Tumor size was monitored twice a week with a calliper and it was expressed according to the formula V = (length × width^2)/2. […]

## H-RAFQSFRKMWPFFAM-OH [P60-D2A]
[1]
  Inhibition of FOXP3 homodimerization (in words): inhibited
FOXP3/AML1 interaction
  Inhibition of FOXP3-AML1 heterodimerization (in words): inhibited
Murine Treg cells; in vitro cell based bioassay, read-out: IC50 to inhibit Treg activity
  IC50: 27200 nM

## CSCC[C@@H]1NC(=O)[C@H](C)NC(=O)[C@H](Cc2ccccc2)NC(=O)[C@H](Cc2ccccc2)NC(=O)[C@@H]2CCCN2C(=O)[C@H](Cc2c[nH]c3ccccc23)NC(=O)[C@H](CCSC)NC(=O)[C@H](CCCCN)NC(=O)[C@H](CCCNC(=N)N)NC(=O)[C@H](Cc2ccccc2)NC(=O)[C@H](C)NC(=O)[C@H](CCC(N)=O)NC(=O)[C@H](Cc2ccccc2)NC(=O)[C@H](C)NC(=O)[C@H](CCCNC(=N)N)NC1=O [CM-1215] (cyclo(RAFQAFRKMWPFFAM))
[2]; FOXP3 coated on chip, mutants compared with original P60
  FOXP3 binding capacity by SPR (in words): improved very significantly its capacity to bind to FOXP3
Murine Treg cells
  IC50: 770 nM
[3]
  T1/2: 5.30 min
  half-life: ~8 min
[4]
  half-life: ~8 min
Hepa-129 cells; CM-1215 50μg/day/mouse i.p. days 7 to 16, anti-PD1 50 μg/mice days 7 and 14
  Antitumor effect / survival, single agent (in words): some beneficial effect on the percentage of survival, this response did not reach statistical significance
Hepa-129 cells; anti-PD1 50 μg days 7 and 14 plus CM-1215 50 μg/day/mouse i.p. days 7 to 16, p < 0.001
  Antitumor activity in combination with anti-PD1 (in words): exhibited antitumor activity

## Ac-RAFQAFRKMWPFFAM-NH2 [P60-D2A-S5A]
[2]
  FOXP3 binding by SPR (in words): improved FOXP3 binding
FOXP3/AML1 interaction
  Inhibition of FOXP3-AML1 heterodimerization (in words): significantly improved the capacity of the original P60 peptide to inhibit this interaction
Murine Treg cells
  IC50: 1890 nM
[3]
  half-life: < 2.5 min
[4]
  half-life: < 2.5 min

## Ac-RAFQAFRKMWAFFAM-NH2 [P60-D2A-S5A-P11A]
[2]
  FOXP3 binding by SPR (in words): improved very significantly the FOXP3 binding capacity
FOXP3/AML1 interaction
  Inhibition of FOXP3-AML1 heterodimerization (in words): significantly improved the capacity of the original P60 peptide to inhibit this interaction
Murine Treg cells
  IC50: 2950 nM
